Measurements reported in patent US20250136593A1, “DEGRADATION AGENT AND USE THEREOF” (HITGEN INC., priority 2021, published 2025).

Tests used:
[1] = target: ternary complex between BCL-XL and CRBN-DDB1 (Homo sapiens, UniProt Q07817+Q96SW2); assay: Compound-induced formation of ternary complex between BCL-XL and CRBN-DDB1 by AlphaLISA; type: biochemical; design: key: the number of + indicates the intensity of AlphaLISA peak signal; ++: the number of + indicates the intensity of AlphaLISA peak signal; +++: the number of + indicates the intensity of AlphaLISA peak signal; ++++: the number of + indicates the intensity of AlphaLISA peak signal; +++++: the number of + indicates the intensity of AlphaLISA peak signal; conditions: peak signal; 60 nM Strep-BCL-XL and 60 nM His-CRBN/DDB1
ternary complex between BCL-XL and CRBN-DDB1, sequence (Q07817 whole entry): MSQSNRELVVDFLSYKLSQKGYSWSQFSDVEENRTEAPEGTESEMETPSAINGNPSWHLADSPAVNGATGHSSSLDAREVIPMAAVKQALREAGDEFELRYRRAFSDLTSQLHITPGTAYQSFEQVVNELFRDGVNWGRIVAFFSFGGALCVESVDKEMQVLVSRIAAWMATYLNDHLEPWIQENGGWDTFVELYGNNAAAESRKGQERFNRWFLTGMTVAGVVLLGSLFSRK
ternary complex between BCL-XL and CRBN-DDB1, sequence (Q96SW2 whole entry): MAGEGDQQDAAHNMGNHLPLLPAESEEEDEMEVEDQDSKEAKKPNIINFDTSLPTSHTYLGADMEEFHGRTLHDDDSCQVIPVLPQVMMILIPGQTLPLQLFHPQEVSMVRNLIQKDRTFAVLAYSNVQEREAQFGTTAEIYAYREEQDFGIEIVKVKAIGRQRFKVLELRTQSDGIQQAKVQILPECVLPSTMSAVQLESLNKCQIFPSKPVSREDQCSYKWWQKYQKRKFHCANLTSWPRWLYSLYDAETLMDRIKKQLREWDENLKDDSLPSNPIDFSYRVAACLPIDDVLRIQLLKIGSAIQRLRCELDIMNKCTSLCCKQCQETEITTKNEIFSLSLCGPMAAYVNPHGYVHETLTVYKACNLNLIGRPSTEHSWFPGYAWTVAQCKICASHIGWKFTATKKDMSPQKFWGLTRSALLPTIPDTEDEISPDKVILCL
ternary complex between BCL-XL and CRBN-DDB1, sequence (Q16531 whole entry partner): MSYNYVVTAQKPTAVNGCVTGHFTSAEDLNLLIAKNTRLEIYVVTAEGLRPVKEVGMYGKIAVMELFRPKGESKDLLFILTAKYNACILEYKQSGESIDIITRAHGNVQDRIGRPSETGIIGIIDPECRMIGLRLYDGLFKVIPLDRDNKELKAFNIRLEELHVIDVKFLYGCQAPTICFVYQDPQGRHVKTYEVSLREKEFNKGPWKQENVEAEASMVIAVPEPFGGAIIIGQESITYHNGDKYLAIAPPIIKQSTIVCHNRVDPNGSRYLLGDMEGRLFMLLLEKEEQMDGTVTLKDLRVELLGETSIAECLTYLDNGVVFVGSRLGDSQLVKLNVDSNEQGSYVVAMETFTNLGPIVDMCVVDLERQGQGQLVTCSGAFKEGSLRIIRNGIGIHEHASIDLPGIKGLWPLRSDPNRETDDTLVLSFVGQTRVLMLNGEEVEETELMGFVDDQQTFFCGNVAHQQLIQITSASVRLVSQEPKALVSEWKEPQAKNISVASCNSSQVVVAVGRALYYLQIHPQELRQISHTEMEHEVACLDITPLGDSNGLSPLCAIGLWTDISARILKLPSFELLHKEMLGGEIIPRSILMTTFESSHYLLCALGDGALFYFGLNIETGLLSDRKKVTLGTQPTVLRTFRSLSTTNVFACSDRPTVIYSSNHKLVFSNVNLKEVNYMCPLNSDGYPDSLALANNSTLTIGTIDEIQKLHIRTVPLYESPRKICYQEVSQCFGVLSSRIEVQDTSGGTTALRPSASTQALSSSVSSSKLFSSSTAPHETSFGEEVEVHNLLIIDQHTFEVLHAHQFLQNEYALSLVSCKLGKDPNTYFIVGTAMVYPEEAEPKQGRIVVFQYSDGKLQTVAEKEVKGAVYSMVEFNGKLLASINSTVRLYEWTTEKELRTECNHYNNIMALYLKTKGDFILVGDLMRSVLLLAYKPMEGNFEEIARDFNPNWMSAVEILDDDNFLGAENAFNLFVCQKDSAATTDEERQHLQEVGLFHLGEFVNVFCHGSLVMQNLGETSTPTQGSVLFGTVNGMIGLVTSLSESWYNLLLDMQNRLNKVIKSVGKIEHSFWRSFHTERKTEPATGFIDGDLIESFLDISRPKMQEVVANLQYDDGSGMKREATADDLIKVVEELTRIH
Description: Experimental Example 4, Detection of Compound-Induced Formation of Ternary Complex Between BCL-XL and CRBN-DDB1 by AlphaLISA Method
Na2HPO4(Sigma), NaH2PO4(Sigma), sodium chloride (Sigma), Tween-20 (Sigma), AlphaLISA®Nikel Chelate Acceptor beads (PerkinElmer), Strep-Tactin® Alpha Donor beads (PerkinElmer), Assay plate (Corning), Strep-BCl-XL (HitGen), His-CRBN/DDB1 (HitGen).
DMSO was used to dissolve the dry powder of the test compound to obtain a 10.00 mM solution. The instrument ECHO was used to perform gradient dilution of the compound, which was then added to a 384-well reaction plate (Corning, Cat #3824), so that the final concentration of DMSO in the entire reaction system (10.0 μL) was less than 1%, and the same amount of DMSO was added and used as a control.
Strep-BCl-XL and His-CRBN/DDB1 proteins were dissolved in buffer (10 mM NaH2PO4, 40 mM Na2HPO4, 150 mM sodium chloride, 0.03% Tween20, pH=7.4) to obtain a protein mixture of 60 nM Strep-BCL-XL and 60 nM His-CRBN/DDB1, the protein mixture (5ul/well) was added to the 384-well plate in which the compound had been added, and incubated at room temperature for 30 minutes, then 5 μl of a detection mixture with 50 μg/ml AlphaLISA®Nikel Chelate Acceptor beads and 50 μg/ml Strep-Tactin® Alpha Donor beads was added, and incubated at room temperature for 2 hours; and then a microplate reader was used to detect AlphaLISA signal.
Fifth order polynomial or Sixth order polynomial in Polynomial of Graphpad 6.0 was used for data fitting.

MOLT-4 cells = assay: Inhibitory activity on MOLT4 cell proliferation by Cell Titer-Glo method; type: cell-based; conditions: Homo sapiens, 72 hours incubation, read-out: IC50 concentration for inhibiting MOLT-4 cells
Description: Experimental Example 5, Evaluation Experiment of Inhibitory Activity of Compound on MOLT4 Cell Proliferation by Cell Titer-Glo Method
RPMI medium modified (Hyclone), FBS (Corning), Dimethyl Sulfoxide, P/S, CellTiter-Gbo Luminescent Cell Viability Assay (Promega), MOLT-4 cell (ATCC).
MOLT-4 cells were cultured in monolayer in vitro in an incubator containing 5% CO2 air at 37° C. The culture medium was RPMI 1640 with 10% FBS and 1% P/S. 15 μL of MOLT4 cells, containing 5×10^4 cells per ml, was inoculated to a 384-well plate (Corning, 3707), 750 cells/well, and incubated at 37° C. and 5% CO2 for 30 minutes. Then the compound that had been diluted in advance was added, with a total of 9 concentration points, and 2 parallel repetitions for each concentration point. The cell growing group without adding the compound was used as a negative control (maximum signal control), and the culture medium group was used as a blank control (minimum signal control). At the same time, it was ensured that the final DMSO content in each reaction well was 0.1%. The compound and the cells were incubated in a cell culture incubator at 37° C., 5% CO2 for 3 days (72 hours).
The 384-well plate was taken out from the cell culture incubator and allowed to stand at room temperature, equilibrated for 20 to 30 minutes, and then 25 μl of Cell Titer-Glo detection reagent was added to each reaction well, lysed on a shaker for 2 minutes, incubated for 10 minutes, and BMG PHERAStar (Luminescence) was used for reading.
The inhibition rate was calculated based on the luminescence signals: the average value of the negative control (maximum signal control) and the blank control (minimum signal control) was first calculated, then the inhibition rates of the compound at different concentrations for the cells were calculated as follows:
The IC50 of the compound to inhibit cell activity was calculated by fitting with GraphPad Prism 6 using log(inhibitor) vs. response−Variable slope mode. The fitting equation was: Y=Bottom+(Top−Bottom)/(1+10^((LogIC50−X)*HillSlope)), wherein Y represented the inhibition rate and X represented the known compound concentration after Log.

| SMILES | AlphaLISA signal (PROTAC ternary complex signal intensity) [1] | IC50 (MOLT-4 cells) [µM] |
| --- | --- | --- |
| CNc1nc(-c2cnc3ccccc3c2)nc2c1CCN(C(=O)c1ccc(COc3ccc(C#CCN4CCN(C(=O)CCCn5cc(COCCOCCNc6cccc7c6C(=O)N(C6CCC(=O)NC6=O)C7=O)nn5)CC4)cc3)cc1)C2 (stereo not drawn) [A] | ++ | 50 to 100 |
| C=Cc1cc(-c2nc3c(c(NC)n2)CCN(C(=O)c2ccc(COc4ccc(C#CCN5CCN(CCCCNc6cccc7c6C(=O)N(C6CCC(=O)NC6=O)C7=O)CC5)cc4)cc2)C3)cnc1C=C (stereo not drawn) [Compound C2-2] | ++++ | 50 to 100 |
| C=Cc1cc(-c2nc3c(c(NC)n2)CCN(C(=O)c2ccc(COc4ccc(C#CCN5CCN(CCCCCNc6cccc7c6C(=O)N(C6CCC(=O)NC6=O)C7=O)CC5)cc4)cc2)C3)cnc1C=C (stereo not drawn) [Compound C2-3] | +++++ | 100 to 200 |
| C=Cc1cc(-c2ncc3c(n2)CN(C(=O)c2ccc(/C=C/c4ccc(C#CCN5CCN(CCCCCOc6cccc7c6C(=O)N(C6CCC(=O)NC6=O)C7=O)CC5)cc4)cc2)CC3)cnc1C=C (stereo not drawn) [Compound C3-2] | + | 100 to 200 |
| C/C=c1/cc(-c2ncc3c(n2)CN(C(=O)c2ccc(/C=C/c4ccc(C#CCN5CCN(CCCCCOc6cccc7c6CN(C6CCC(=O)NC6=O)C7=O)CC5)cc4)cc2)CC3)cn/c1=C/C (stereo not drawn) [Compound C3-4] | + | 100 to 200 |
| C/C=c1/cc(-c2nc3c(c(NC)n2)CCN(C(=O)c2ccc(/C=C/c4ccc(C#CCN5CCN(CCCCCOc6cccc7c6CN(C6CCC(=O)NC6=O)C7=O)CC5)cc4)cc2)C3)cn/c1=C/C (stereo not drawn) [Compound C3-5] | ++ | 100 to 200 |
| C=Cc1cc(-c2nc3c(c(NC)n2)CCN(C(=O)c2ccc(/C=C/c4ccc(C#CCN5CCN(CCCCCOc6cccc7c6C(=O)N(C6CCC(=O)NC6=O)C7=O)CC5)cc4)cc2)C3)cnc1C=C (stereo not drawn) [Compound C3-6] | + | 50 to 100 |
| C=Cc1cc(-c2nc3c(c(NC)n2)CCN(C(=O)c2ccc(COc4ccc(C#CCN5CCN(CCCOc6cccc7c6C(=O)N(C6CCC(=O)NC6=O)C7=O)CC5)cc4)cc2)C3)cnc1C=C (stereo not drawn) [Compound C3-14] | + | – |
| C=Cc1cc(-c2nc3c(c(NC)n2)CCN(C(=O)c2ccc(COc4ccc(C#CCN5CCN(CCCCOc6cccc7c6C(=O)N(C6CCC(=O)NC6=O)C7=O)CC5)cc4)cc2)C3)cnc1C=C (stereo not drawn) [Compound C3-15] | + | – |
| C=Cc1cc(-c2nc3c(c(NC)n2)CCN(C(=O)c2ccc(COc4ccc(C#CCN5CCN(CCCCCOc6cccc7c6C(=O)N(C6CCC(=O)NC6=O)C7=O)CC5)cc4)cc2)C3)cnc1C=C (stereo not drawn) [Compound C3-16] | ++++ | 50 to 100 |
| C=Cc1cc(-c2nc3c(c(NC)n2)CCN(C(=O)c2ccc(COc4ccc(C#CCN5CCN(CCCCCCOc6cccc7c6C(=O)N(C6CCC(=O)NC6=O)C7=O)CC5)cc4)cc2)C3)cnc1C=C (stereo not drawn) [Compound C3-17] | ++++ | 50 to 100 |
| C=Cc1cc(-c2nc3c(c(NC)n2)CCN(C(=O)c2ccc(COc4ccc(C#CCN5CCN(CCCCCCCCOc6cccc7c6C(=O)N(C6CCC(=O)NC6=O)C7=O)CC5)cc4)cc2)C3)cnc1C=C (stereo not drawn) [Compound C3-18] | +++ | – |
| O=C1CCC(N2Cc3c(C#CCCCN4CCN(CC#Cc5ccc(/C=C/c6ccc(C(=O)N7CCc8cnc(-c9cnc%10ccccc%10c9)nc8C7)cc6)cc5)CC4)cccc3C2=O)C(=O)N1 (stereo not drawn) [Compound D2-4] | + | 100 to 200 |
| CNc1nc(-c2cnc3ccccc3c2)nc2c1CCN(C(=O)c1ccc(/C=C/c3ccc(C#CCN4CCN(CCCC#Cc5cccc6c5CN(C5CCC(=O)NC5=O)C6=O)CC4)cc3)cc1)C2 (stereo not drawn) [Compound D2-6] | ++ | 100 to 200 |
| C=Cc1cc(-c2ncc3c(n2)CN(C(=O)c2ccc(/C=C/c4ccc(C#CCN5CCN(C6CCN(CC#Cc7cccc8c7CN(C7CCC(=O)NC7=O)C8=O)CC6)CC5)cc4)cc2)CC3)cnc1C=C (stereo not drawn) [Compound E1-2] | ++ | 50 to 100 |
| O=C1CCC(N2Cc3c(OC4CC5(C4)CN(C4CCN(CC#Cc6ccc(/C=C/c7ccc(C(=O)N8CCc9cnc(-c%10cnc%11ccccc%11c%10)nc9C8)cc7)cc6)CC4)C5)cccc3C2=O)C(=O)N1 (stereo not drawn) [Compound F3B-2] | ++ | 50 to 100 |
| CNc1nc(-c2cnc3ccccc3c2)nc2c1CCN(C(=O)c1ccc(/C=C/c3ccc(C#CCN4CCN(CCCCC(=O)N[C@H](C(=O)N5C[C@H](O)C[C@H]5C(=O)NCc5ccc(-c6scnc6C)cc5)C(C)(C)C)CC4)cc3)cc1)C2 [Compound G1-4] | + | – |
| CNc1nc(-c2cnc3ccccc3c2)nc2c1CCN(C(=O)c1ccc(/C=C/c3ccc(C#CCN4CCN(CCCCCC(=O)N[C@H](C(=O)N5C[C@H](O)C[C@H]5C(=O)NCc5ccc(-c6scnc6C)cc5)C(C)(C)C)CC4)cc3)cc1)C2 [Compound G1-5] | ++ | > 200 |
| CNc1nc(-c2cnc3ccccc3c2)nc2c1CCN(C(=O)c1ccc(/C=C/c3ccc(C#CCN4CCN(C(=O)CCC(=O)N[C@H](C(=O)N5C[C@H](O)C[C@H]5C(=O)N[C@@H](C)c5ccc(-c6scnc6C)cc5)C(C)(C)C)CC4)cc3)cc1)C2 [Compound G2-2] | + | – |
| CNc1nc(-c2cnc3ccccc3c2)nc2c1CCN(C(=O)c1ccc(/C=C/c3ccc(C#CCN4CCN(C(=O)CCCC(=O)N[C@H](C(=O)N5C[C@H](O)C[C@H]5C(=O)NCc5ccc(-c6scnc6C)cc5)C(C)(C)C)CC4)cc3)cc1)C2 [Compound G2-3] | + | – |
| CNc1nc(-c2cnc3ccccc3c2)nc2c1CCN(C(=O)c1ccc(/C=C/c3ccc(C#CCN4CCN(C(=O)CCCCC(=O)N[C@H](C(=O)N5C[C@H](O)C[C@H]5C(=O)NCc5ccc(-c6scnc6C)cc5)C(C)(C)C)CC4)cc3)cc1)C2 [Compound G2-4] | + | – |
| CNc1nc(-c2cnc3ccccc3c2)nc2c1CCN(C(=O)c1ccc(/C=C/c3ccc(C#CCN4CCN(C(=O)CCCCCC(=O)N[C@H](C(=O)N5C[C@H](O)C[C@H]5C(=O)NCc5ccc(-c6scnc6C)cc5)C(C)(C)C)CC4)cc3)cc1)C2 [Compound G2-5] | + | – |
| CNc1nc(-c2cnc3ccccc3c2)nc2c1CCN(C(=O)c1ccc(/C=C/c3ccc(C#CCN4CCN(C(=O)CCCCCCC(=O)N[C@H](C(=O)N5C[C@H](O)C[C@H]5C(=O)NCc5ccc(-c6scnc6C)cc5)C(C)(C)C)CC4)cc3)cc1)C2 [Compound G2-6] | + | – |
| CNc1nc(-c2cnc3ccccc3c2)nc2c1CCN(C(=O)c1ccc(/C=C/c3ccc(C#CCN4CCN(C(=O)CCCCCCCCC(=O)N[C@H](C(=O)N5C[C@H](O)C[C@H]5C(=O)N[C@@H](C)c5ccc(-c6scnc6C)cc5)C(C)(C)C)CC4)cc3)cc1)C2 [Compound G2-7] | + | – |
| CNc1nc(-c2cnc3ccccc3c2)nc2c1CCN(C(=O)c1ccc(/C=C/c3ccc(C#CCN4CCN(CCCCC(=O)N[C@H](C(=O)N5C[C@H](O)C[C@H]5C(=O)N[C@@H](C)c5ccc(-c6scnc6C)cc5)C(C)(C)C)CC4)cc3)cc1)C2 [Compound G3-1] | + | – |
